Columns and labels:
Rattus norvegicus [1] = test: Memory enhancement effect in time-delay induced Wistar rat model of amnesia assessed as exploration time for object2 in acquisition trial at 0.15 mg/kg, po for 7 days and measured on day 8 by novel object recognition test (reference value: 11.76 sec); type: functional
Rattus norvegicus [2] = test: Improvement in social recognition scopolamine-induced Sprague-Dawley rat model of amnesia assessed as reduction in recognition index at 0.50 mg/kg, po for 7 days measured after 24 hrs (reference value: 0.93); type: functional
[3] = AUClast in BALB/c mouse at 10 mg/kg, po after 0.25 to 144 hrs by LC-MS/MS analysis; type: ADME, organism-based; parameters: dose 10 mg/kg, time upper 144 hr, time lower 0.25 hr, route oral; conditions: in vivo
Rattus norvegicus [4] = test: Improvement in social recognition time delay-induced Sprague-Dawley rat model of amnesia assessed as increase in reduction in social investigation time at 0.05 mg/kg, po for 7 days measured on day 9 (reference value: -0.5%); type: functional; parameters: scale not given: the % may be the effect or the level left
Rattus norvegicus [5] = test: Memory enhancement effect in time-delay induced Wistar rat model of amnesia assessed as exploration time for object2 in acquisition trial at 3 mg/kg, po administered as single dose and measured on day 8 by novel object recognition test (reference value: 16.33 sec); type: functional
[6] = AUCt in Wistar rat plasma at 10 mg/kg, po after 1 to 144 hrs by LC-MS/MS analysis; type: ADME, organism-based
Rattus norvegicus [7] = test: Memory enhancement effect in time-delay induced Wistar rat model of amnesia assessed as exploration time for novel object in retention trial at 0.5 mg/kg, po for 7 days and measured on day 8 by novel object recognition test (reference value: 15.37 sec); type: functional
Rattus norvegicus [8] = test: Memory enhancement effect in scopolamine-induced Wistar rat model of amnesia assessed as exploration time for object2 in acquisition trial at 0.15 mg/kg, po for 7 days and measured on day 8 by novel object recognition test (reference value: 15.63 sec); type: functional
Rattus norvegicus [9] = test: Memory enhancement effect in scopolamine-induced Wistar rat model of amnesia assessed as exploration time for object2 in acquisition trial at 0.5 mg/kg, po administered as single dose and measured on day 8 by novel object recognition test (reference value: 15.63 sec); type: functional
[10] = Drug concentration in Wistar rat plasma at 10 mg/kg, po after 1 hr by LC-MS/MS analysis; type: ADME, organism-based
Rattus norvegicus [11] = test: Memory enhancement effect in scopolamine-induced Wistar rat model of amnesia assessed as exploration time for familiar object in retention trial at 0.05 mg/kg, po for 7 days and measured on day 8 by novel object recognition test (reference value: 8.59 sec); type: functional
Rattus norvegicus [12] = test: Memory enhancement effect in scopolamine-induced Wistar rat model of amnesia assessed as exploration time for novel object in retention trial at 0.5 mg/kg, po for 7 days and measured on day 8 by novel object recognition test (reference value: 12.09 sec); type: functional
[13] = Drug level in Sprague-Dawley rat plasma at 0.5 mg/kg, po for 7 days; type: ADME, organism-based
Rattus norvegicus [14] = test: Improvement in social recognition time delay-induced Sprague-Dawley rat model of amnesia assessed as reduction in recognition index at 1 mg/kg, po administered as single dose prior to 1 hr training and measured after 30 mins (reference value: 1); type: functional
Rattus norvegicus [15] = test: Improvement in social recognition time delay-induced Sprague-Dawley rat model of amnesia assessed as reduction in recognition index at 0.50 mg/kg, po for 7 days and measured on day 9 (reference value: 1.05); type: functional
[16] = AUC(0 to infinity) in human at 7.5 to 100 mg; type: ADME
[17] = Clearance in Wistar rat at 1 mg/kg, iv after 0.083 to 144 hrs by LC-MS/MS analysis; type: ADME, organism-based; conditions: in vivo
Rattus norvegicus [18] = test: Memory enhancement effect in scopolamine-induced Wistar rat model of amnesia assessed as exploration time for object1 in acquisition trial at 0.5 mg/kg, po for 7 days and measured on day 8 by novel object recognition test (reference value: 16.11 sec); type: functional
[19] = Drug concentration in Wistar rat plasma at 10 mg/kg, po after 24 hrs by LC-MS/MS analysis; type: ADME, organism-based
[20] = Drug level in Wistar rat plasma at 0.5 mg/kg, po; type: ADME, organism-based; conditions: in vivo
Rattus norvegicus [21] = test: Memory enhancement effect in time-delay induced Wistar rat model of amnesia assessed as exploration time for familiar object in retention trial at 1 mg/kg, po administered as single dose and measured on day 9 by novel object recognition test (reference value: 13.05 sec); type: functional
[22] = Unbound brain-to-plasma concentration ratio in Wistar rat at 10 mg/kg, po after 4 hrs by LC-MS/MS analysis; type: ADME, organism-based; conditions: read-out: K(p,uu,brain)
[23] = Volume of distribution at steady state in Wistar rat at 1 mg/kg, iv after 0.083 to 144 hrs by LC-MS/MS analysis; type: ADME, organism-based; conditions: in vivo, read-out: Vdss
Cytochrome P450 2A6 = biological target: T1, Cytochrome P450 2A6 (Homo sapiens, UniProt P11509); test: Inhibition of CYP2A6 (unknown origin) up to 10 uM; type: ADME
T1 sequence (P11509 whole entry): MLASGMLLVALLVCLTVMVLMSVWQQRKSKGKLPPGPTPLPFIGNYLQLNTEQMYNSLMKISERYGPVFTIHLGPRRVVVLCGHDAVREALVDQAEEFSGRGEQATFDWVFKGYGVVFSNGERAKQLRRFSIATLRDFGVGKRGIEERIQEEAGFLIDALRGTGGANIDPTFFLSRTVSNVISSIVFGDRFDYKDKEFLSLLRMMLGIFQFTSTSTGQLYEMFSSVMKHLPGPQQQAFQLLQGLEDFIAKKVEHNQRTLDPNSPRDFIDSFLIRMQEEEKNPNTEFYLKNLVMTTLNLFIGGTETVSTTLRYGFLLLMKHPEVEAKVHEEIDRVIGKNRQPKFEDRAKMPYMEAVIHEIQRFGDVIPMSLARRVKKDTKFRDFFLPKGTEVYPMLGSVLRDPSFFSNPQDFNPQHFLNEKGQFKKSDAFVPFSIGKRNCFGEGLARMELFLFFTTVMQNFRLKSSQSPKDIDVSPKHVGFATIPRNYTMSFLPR

Cytochrome P450 1A2 = biological target: T2, Cytochrome P450 1A2 (Homo sapiens, UniProt P05177); test: Inhibition of CYP1A2 (unknown origin) up to 10 uM; type: ADME
T2 sequence (P05177 whole entry): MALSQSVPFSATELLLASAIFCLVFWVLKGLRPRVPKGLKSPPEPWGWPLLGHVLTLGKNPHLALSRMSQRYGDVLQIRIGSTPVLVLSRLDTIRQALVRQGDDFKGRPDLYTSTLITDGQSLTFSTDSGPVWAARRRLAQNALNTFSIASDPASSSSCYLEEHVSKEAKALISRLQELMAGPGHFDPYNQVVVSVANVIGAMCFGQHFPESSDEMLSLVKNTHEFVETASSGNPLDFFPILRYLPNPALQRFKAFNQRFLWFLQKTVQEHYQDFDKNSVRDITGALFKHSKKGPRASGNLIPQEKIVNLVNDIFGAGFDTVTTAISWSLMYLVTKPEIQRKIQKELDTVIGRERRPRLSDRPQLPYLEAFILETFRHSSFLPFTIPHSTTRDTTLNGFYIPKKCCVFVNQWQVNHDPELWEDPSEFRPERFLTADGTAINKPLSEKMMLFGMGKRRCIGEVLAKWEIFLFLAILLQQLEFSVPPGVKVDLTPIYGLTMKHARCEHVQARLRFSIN

Compound: CCC(=O)c1sc(-c2ccc(Cl)cc2)c(C)c1-c1ccc(S(N)(=O)=O)cc1
- Time (Rattus norvegicus [1]): 13.58 s
- Activity_index (Rattus norvegicus [2]): 0.75
- AUC(0-t) [3]: 63 µM·h
- Activity (Rattus norvegicus [4]): 18.97%
- Time (Rattus norvegicus [5]): 19.43 s
- AUC(0-t) [6]: 35 µM·h
- Time (Rattus norvegicus [7]): 19.64 s
- Time (Rattus norvegicus [8]): 13.41 s
- Time (Rattus norvegicus [9]): 16.55 s
- concentration at 1 h [10]: 870 nM
- Time (Rattus norvegicus [11]): 8.03 s
- Time (Rattus norvegicus [12]): 15.06 s
- concentration at 168 h [13]: 1120 nM
- Activity_index (Rattus norvegicus [14]): 0.68
- Activity_index (Rattus norvegicus [15]): 0.54
- AUC(0-inf) [16]: 261 to 24100 ng·h/mL
- clearance [17]: 1.3 mL/min/kg
- Time (Rattus norvegicus [18]): 13.94 s
- concentration at 24 h [19]: 740 nM
- concentration [20]: 270 nM
- Time (Rattus norvegicus [21]): 10.49 s
- Kp uu at 4 h [22]: 1.29
- Vd [23]: 4.3 L/kg
- inhibition (INH) (Cytochrome P450 2A6): Not Active
- inhibition (INH) (Cytochrome P450 1A2): Not Active

— ChEMBL document CHEMBL4354827, “Discovery of Novel, Potent, Brain-Permeable, and Orally Efficacious Positive Allosteric Modulator of α7 Nicotinic Acetylcholine Receptor [4-(5-(4-Chlorophenyl)-4-methyl-2-propionylthiophen-3-yl)benzenesulfonamide]: Structure-Activity Relationship and Preclinical Characterization” (J Med Chem, 2020)
